Source: paper PMC5980259, “GI‐530159, a novel, selective, mechanosensitive two‐pore‐domain potassium (K2P) channel opener, reduces rat dorsal root ganglion neuron excitability” (British Journal of Pharmacology, 2017)

Columns and labels:
hTREK1 = target: T1, hTREK1 (Homo sapiens, UniProt O95069); test: Manual whole-cell patch clamp, HEK293 cells stably expressing TREK1; type: cell-based; set-up: expressed in transfected cells; conditions: 100 μM; n = 7
T1 sequence (O95069 1-426): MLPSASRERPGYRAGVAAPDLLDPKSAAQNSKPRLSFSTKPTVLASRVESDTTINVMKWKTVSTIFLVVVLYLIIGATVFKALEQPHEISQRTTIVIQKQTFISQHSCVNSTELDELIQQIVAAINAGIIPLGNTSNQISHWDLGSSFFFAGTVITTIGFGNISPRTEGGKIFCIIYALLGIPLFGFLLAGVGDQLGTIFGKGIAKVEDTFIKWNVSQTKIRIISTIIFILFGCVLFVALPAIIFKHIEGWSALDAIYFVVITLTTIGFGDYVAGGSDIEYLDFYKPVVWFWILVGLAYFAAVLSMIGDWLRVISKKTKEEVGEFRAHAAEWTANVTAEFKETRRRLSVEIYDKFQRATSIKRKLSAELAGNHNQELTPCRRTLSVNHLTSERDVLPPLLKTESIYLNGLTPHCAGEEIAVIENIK
Experimental: Electrophysiological studies were performed on CHO or HEK293 cells, stably expressing human recombinant TREK1; tsA‐201 cells transiently transfected with human recombinant K2P channels and acutely dissociated rat DRG cells, all at room temperature (22–24°C).
Studies were performed using a conventional patch clamp and Multiclamp 700B and pCLAMP software (Molecular Devices, Sunnyvale, CA, USA). For conventional manual patch clamp, glass coverslips containing HEK293 cells were perfused with an extracellular solution (ECS) containing (in mM): 135 NaCl, 4.7 KCl, 1 CaCl2, 1 MgCl2, 10 HEPES and 10 glucose, pH 7.4, with NaOH (310 mOsmol·L^−1). The patch pipette was filled with (in mM): 130 KCl, 1 MgCl2, 5 MgATP, 10 HEPES and 10 BAPTA, pH adjusted to 7.3 with KOH (290 mOsmol·L^−1).

[1] = tested on: Na current in DRG neurons; test: Voltage-clamp recordings from DRG neurons, Na current; type: cell-based, rat
Experimental: Acutely dissociated rat DRG cells were obtained according to a previously described protocol (Passmore, 2005). All animal care and experimental procedures complied with guidelines and were approved by the Pfizer Neusentis Institutional Animal Use and Care Committee. Animal studies are reported in compliance with the ARRIVE guidelines (Kilkenny et al., 2010; McGrath and Lilley, 2015).Cells were plated on coated coverslips (poly‐D‐lysine/laminin, BD Biosciences, San Jose, CA, USA) prior to patching on the same day. Cells were perfused with an extracellular solution containing (in mM): 135 NaCl, 4.7 KCl, 1 CaCl2, 1 MgCl2, 10 HEPES and 10 glucose, pH 7.4, with NaOH (310 mOsmol·L^−1). Pipette solution contained (in mM): 130 KCl, 1 MgCl2, 5 MgATP, 10 HEPES and 5 EGTA, pH adjusted to 7.3 with KOH (290 mOsmol·L^−1). For whole‐cell recordings, currents were filtered at 2 kHz and sampled at 5 kHz. Series resistance was compensated for by up to 80%. For current‐clamp recordings, action potential firing and resting membrane potential (RMP) were recorded from small cells ([…]). GI‐530159 was dissolved in 0.3% DMSO as 10 mM stock and applied in the vicinity of cells using a gravity fed perfusion system (MSC‐200, Bio‐Logic SAS, Claix, France).

Kv7.3(KCNQ3) = Kv7.3(KCNQ3) (Homo sapiens, UniProt O43525); test: BL-1249 selectivity (manual patch-clamp and flux assay platforms), Kv7.3; type: cell-based; conditions: 10 μM
TREK1 = tested on: TREK1; set-up: method as in Cao et al., 2010; conditions: ref Cao et al., 2010; read-out: EC50 in electrophysiological experiments; cited from earlier work
Kv7.2 (KCNQ2) = Kv7.2 (KCNQ2) (Homo sapiens, UniProt O43526); test: BL-1249 selectivity (manual patch-clamp and flux assay platforms), Kv7.2; type: cell-based; conditions: 10 μM
BK (KCa1.1) = BK (KCa1.1) (Homo sapiens, UniProt Q12791); test: BL-1249 selectivity (manual patch-clamp and flux assay platforms), BK; type: cell-based; conditions: 10 μM
BK (KCa1.1), sequence (Q12791 whole entry, species assumed): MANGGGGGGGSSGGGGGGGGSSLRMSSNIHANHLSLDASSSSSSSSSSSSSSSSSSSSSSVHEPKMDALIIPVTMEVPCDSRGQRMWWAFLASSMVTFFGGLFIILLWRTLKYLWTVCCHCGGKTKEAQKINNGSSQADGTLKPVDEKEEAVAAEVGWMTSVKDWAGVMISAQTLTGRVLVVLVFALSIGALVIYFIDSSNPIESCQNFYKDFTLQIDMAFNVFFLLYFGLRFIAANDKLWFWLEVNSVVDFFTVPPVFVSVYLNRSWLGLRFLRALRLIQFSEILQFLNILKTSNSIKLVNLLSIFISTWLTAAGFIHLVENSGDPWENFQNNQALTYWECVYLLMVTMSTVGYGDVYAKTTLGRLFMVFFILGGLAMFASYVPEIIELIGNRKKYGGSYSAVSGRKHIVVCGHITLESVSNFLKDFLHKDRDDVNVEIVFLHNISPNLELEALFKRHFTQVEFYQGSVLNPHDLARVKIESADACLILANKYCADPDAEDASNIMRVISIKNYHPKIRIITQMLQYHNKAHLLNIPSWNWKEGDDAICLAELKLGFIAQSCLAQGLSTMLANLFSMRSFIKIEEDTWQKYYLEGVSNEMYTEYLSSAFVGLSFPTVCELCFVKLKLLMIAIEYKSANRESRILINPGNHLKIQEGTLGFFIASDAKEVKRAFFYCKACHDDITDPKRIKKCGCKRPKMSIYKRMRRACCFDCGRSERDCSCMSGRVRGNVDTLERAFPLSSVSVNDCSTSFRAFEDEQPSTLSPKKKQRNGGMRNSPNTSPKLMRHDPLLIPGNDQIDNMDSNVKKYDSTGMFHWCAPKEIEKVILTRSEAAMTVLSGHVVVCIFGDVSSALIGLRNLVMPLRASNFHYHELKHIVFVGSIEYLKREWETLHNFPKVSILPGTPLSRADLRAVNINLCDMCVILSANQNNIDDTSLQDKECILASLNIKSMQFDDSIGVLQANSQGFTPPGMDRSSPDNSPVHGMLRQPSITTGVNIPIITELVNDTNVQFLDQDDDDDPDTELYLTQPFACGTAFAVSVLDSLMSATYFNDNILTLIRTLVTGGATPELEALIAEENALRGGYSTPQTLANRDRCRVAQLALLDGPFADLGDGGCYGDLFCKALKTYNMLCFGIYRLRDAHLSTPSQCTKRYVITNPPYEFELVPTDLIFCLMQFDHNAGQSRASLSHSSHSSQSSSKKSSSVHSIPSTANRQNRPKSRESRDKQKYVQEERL

TASK3 (K2P9.1) = TASK3 (K2P9.1) (Homo sapiens, UniProt Q9NPC2); set-up: method as in Cao et al., 2010; conditions: ref Cao et al., 2010; cited from earlier work
TASK3 (K2P9.1), sequence (Q9NPC2 whole entry, species assumed): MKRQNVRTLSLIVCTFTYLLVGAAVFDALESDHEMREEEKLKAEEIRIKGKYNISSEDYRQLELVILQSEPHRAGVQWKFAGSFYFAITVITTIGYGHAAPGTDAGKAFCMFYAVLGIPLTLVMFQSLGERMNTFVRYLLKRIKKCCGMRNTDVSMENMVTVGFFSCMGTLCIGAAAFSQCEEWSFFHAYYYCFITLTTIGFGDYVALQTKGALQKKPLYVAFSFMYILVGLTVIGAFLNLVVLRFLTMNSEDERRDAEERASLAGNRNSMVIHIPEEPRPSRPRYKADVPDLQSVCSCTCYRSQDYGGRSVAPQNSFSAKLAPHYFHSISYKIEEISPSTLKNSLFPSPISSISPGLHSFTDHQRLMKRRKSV

hTRAAK = target: T2, hTRAAK (Homo sapiens, UniProt Q9NYG8); test: Whole-cell patch clamp, transiently transfected tsA-201 cells, TRAAK; type: cell-based; conditions: Supporting Information Figure S2
T2 construct: expressed in transfected cells; host or cells: tsA-201, transient, pcDNA3.1 vector
T2 sequence (Q9NYG8 1-393): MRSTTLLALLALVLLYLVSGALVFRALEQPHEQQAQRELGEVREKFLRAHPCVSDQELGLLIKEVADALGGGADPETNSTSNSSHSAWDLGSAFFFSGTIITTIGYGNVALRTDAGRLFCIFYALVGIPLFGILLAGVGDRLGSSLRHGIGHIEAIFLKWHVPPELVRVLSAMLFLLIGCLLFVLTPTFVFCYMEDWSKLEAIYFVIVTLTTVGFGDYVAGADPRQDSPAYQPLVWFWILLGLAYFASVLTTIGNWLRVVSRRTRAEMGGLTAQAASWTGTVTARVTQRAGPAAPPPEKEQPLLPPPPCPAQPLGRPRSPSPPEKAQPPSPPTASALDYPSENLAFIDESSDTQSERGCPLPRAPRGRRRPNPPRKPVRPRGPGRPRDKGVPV
Experimental: Recordings of hTREK1, hTREK1∆N, hTREK2, hTRAAK and […] currents from transiently transfected tsA‐201 cells were performed using methods as described in Veale and Mathie (2016). Briefly, the pcDNA3.1 vector was cloned with the gene of interest, and these vectors and a similar vector containing GFP were incorporated into the tsA201 cells (0.5 μg per well) using the calcium phosphate method. The cells were incubated for 6–12 h at 37°C in […] and 5% carbon dioxide. Cells were then washed using a PBS solution and used for experiments after 24 h.
Currents were recorded using whole‐cell patch‐clamp using an Axopatch 1D amplifier. Cells were placed in a recording chamber filled with an external medium composed of 145 mM, NaCl, 2.5 mM KCl, 3 mM MgCl2, 1 mM CaCl2 and 10 mM HEPES (pH to 7.4, using NaOH). The internal medium used in the glass pipette comprised 150 mM KCl, 3 mM MgCl2, 5 mM (or 0.1 mM) EGTA and 10 mM HEPES (pH to 7.4, using KOH). GI‐530159 was applied by bath perfusion. Currents were recorded and analysed using pCLAMP 10.2 software Microsoft Excel. The voltage protocol used for recording current through K2P channels was as previously described (Veale and Mathie, 2016). For analysis, we measured the current difference between the −80 and −40 mV steps.

NaV1.7 = NaV1.7 (Homo sapiens, UniProt Q15858); test: BL-1249 selectivity (manual patch-clamp and flux assay platforms), NaV1.7; type: cell-based; conditions: 10 μM
NaV1.7, sequence (Q15858 whole entry): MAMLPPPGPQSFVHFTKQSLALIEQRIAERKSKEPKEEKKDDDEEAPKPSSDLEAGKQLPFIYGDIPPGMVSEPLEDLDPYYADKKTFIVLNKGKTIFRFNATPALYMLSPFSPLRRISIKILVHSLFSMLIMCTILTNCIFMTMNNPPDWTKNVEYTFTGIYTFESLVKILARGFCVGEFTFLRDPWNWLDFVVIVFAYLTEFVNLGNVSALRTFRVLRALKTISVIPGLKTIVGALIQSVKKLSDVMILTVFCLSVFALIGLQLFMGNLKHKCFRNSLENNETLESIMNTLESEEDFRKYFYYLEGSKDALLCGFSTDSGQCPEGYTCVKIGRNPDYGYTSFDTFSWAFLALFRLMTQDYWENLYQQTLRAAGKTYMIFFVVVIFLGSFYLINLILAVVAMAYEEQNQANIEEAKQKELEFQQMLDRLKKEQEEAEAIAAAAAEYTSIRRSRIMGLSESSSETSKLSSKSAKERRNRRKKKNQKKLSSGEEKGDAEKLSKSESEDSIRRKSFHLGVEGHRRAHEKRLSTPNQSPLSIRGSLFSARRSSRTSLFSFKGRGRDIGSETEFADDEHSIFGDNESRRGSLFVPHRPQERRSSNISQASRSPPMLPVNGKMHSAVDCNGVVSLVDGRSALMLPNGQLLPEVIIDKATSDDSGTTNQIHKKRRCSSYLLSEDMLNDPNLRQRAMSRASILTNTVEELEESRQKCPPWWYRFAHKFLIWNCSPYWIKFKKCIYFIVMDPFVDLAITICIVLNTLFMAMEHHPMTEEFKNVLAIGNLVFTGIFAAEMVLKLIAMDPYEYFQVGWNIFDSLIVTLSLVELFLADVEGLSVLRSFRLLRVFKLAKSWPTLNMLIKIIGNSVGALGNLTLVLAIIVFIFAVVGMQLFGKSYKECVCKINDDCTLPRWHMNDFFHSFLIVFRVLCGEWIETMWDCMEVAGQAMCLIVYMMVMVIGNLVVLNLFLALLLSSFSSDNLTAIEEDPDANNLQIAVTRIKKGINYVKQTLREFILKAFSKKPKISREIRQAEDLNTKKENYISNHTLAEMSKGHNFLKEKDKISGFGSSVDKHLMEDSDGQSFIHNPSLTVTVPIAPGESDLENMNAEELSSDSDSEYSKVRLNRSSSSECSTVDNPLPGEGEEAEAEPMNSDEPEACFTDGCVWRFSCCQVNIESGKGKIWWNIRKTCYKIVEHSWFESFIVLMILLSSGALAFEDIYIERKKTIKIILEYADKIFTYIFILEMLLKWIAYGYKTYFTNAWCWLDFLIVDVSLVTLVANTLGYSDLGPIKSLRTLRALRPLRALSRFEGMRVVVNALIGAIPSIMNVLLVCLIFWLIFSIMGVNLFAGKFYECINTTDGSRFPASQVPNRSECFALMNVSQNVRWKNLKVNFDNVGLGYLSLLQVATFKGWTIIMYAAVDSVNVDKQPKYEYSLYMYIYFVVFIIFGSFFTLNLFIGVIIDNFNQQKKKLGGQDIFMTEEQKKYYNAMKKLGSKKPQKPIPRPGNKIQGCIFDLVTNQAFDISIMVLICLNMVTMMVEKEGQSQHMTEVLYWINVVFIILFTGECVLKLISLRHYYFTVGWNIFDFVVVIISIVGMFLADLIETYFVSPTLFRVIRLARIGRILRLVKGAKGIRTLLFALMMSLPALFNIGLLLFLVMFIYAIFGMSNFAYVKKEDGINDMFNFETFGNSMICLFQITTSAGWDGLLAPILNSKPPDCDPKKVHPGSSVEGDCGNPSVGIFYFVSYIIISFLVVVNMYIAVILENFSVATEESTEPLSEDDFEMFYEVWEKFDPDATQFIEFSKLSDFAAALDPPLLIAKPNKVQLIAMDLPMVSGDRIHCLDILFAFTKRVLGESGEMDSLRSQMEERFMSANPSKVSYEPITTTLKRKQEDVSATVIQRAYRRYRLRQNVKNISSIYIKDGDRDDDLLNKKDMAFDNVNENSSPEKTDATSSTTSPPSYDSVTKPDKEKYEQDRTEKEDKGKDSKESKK

## c1ccc(-c2nnn[nH]2)c(Nc2cccc3c2CCCC3)c1 [BL‐1249, (5,6,7,8‐tetrahydro‐naphthalen‐1‐yl)‐[2‐(1H‐tetrazol‐5‐yl)‐phenyl]‐amine]
hTREK1
  maximal enhanced current: 7.2 ± 1.3 nA
[1]
  block of Na current in DRG neurons: clear block
Kv7.3(KCNQ3)
  effect on Kv7.3 (KCNQ3): significant inhibition
TREK1
  EC50: ~1000 nM
Kv7.2 (KCNQ2)
  effect on Kv7.2 (KCNQ2): significant inhibition
BK (KCa1.1)
  effect on BK (KCa1.1): significant inhibition
TASK3 (K2P9.1)
  effect on TASK3 (K2P9.1) channels: strong activator
hTRAAK
  effect on TRAAK channels: clear enhancement
NaV1.7
  effect on NaV1.7: significant inhibition
